In the NIST ThermoML archive (doi:10.1016/j.jct.2015.06.015):
± gives the expanded uncertainty stated by the source.

Conditions: Crystal; DTA

Structure (SMILES)	Triple point temperature [K]
[Cl-].[Na+] [sodium chloride]	1074 ± 0.6
[Ag][I] [silver iodide]	832 ± 0.6
